From ChEMBL document CHEMBL3352031, “Discovery of diamine-linked 17-aroylamido-17-demethoxygeldanamycins as potent Hsp90 inhibitors” (Eur J Med Chem, 2014)

System: MDA-MB-231
Experiment: cells
Settings: Homo sapiens, MDA-MB-231, 72 h
Description: Cytotoxicity against human MDA-MB-231 cells after 72 hrs by MTT assay

| SMILES | IC50 [µM] |
| --- | --- |
| CO[C@H]1/C=C\C=C(/C)C(=O)NC2=CC(=O)C(NCCCCCCNC(=O)/C=C/c3ccccc3[N+](=O)[O-])=C(C[C@@H](C)C[C@H](OC)[C@H](O)[C@@H](C)/C=C(\C)[C@@H]1OC(N)=O)C2=O | 1.61 |
| CO[C@H]1/C=C\C=C(/C)C(=O)NC2=CC(=O)C(NCCCCNC(=O)c3nc(C)c(C)nc3C)=C(C[C@@H](C)C[C@H](OC)[C@H](O)[C@@H](C)/C=C(\C)[C@@H]1OC(N)=O)C2=O | 8.45 |
| CO[C@H]1/C=C\C=C(/C)C(=O)NC2=CC(=O)C(NCCCCCCNC(=O)c3cccs3)=C(C[C@@H](C)C[C@H](OC)[C@H](O)[C@@H](C)/C=C(\C)[C@@H]1OC(N)=O)C2=O | 3.03 |
| CO[C@H]1/C=C\C=C(/C)C(=O)NC2=CC(=O)C(NCCCCNC(=O)c3ccccc3O)=C(C[C@@H](C)C[C@H](OC)[C@H](O)[C@@H](C)/C=C(\C)[C@@H]1OC(N)=O)C2=O | 4.9 |
| CO[C@H]1/C=C\C=C(/C)C(=O)NC2=CC(=O)C(NCCCCCCNC(=O)/C=C/c3cccc([N+](=O)[O-])c3)=C(C[C@@H](C)C[C@H](OC)[C@H](O)[C@@H](C)/C=C(\C)[C@@H]1OC(N)=O)C2=O | 1.02 |
| CO[C@H]1/C=C\C=C(/C)C(=O)NC2=CC(=O)C(NCCCCNC(=O)c3ccncc3)=C(C[C@@H](C)C[C@H](OC)[C@H](O)[C@@H](C)/C=C(\C)[C@@H]1OC(N)=O)C2=O | 3.45 |
| CO[C@H]1/C=C\C=C(/C)C(=O)NC2=CC(=O)C(NCCCCCCNC(=O)c3ccc(I)cc3)=C(C[C@@H](C)C[C@H](OC)[C@H](O)[C@@H](C)/C=C(\C)[C@@H]1OC(N)=O)C2=O | 3.96 |
| CO[C@H]1/C=C\C=C(/C)C(=O)NC2=CC(=O)C(NCCCCCCNC(=O)c3ccccc3Cl)=C(C[C@@H](C)C[C@H](OC)[C@H](O)[C@@H](C)/C=C(\C)[C@@H]1OC(N)=O)C2=O | 3.39 |
| COc1cc(/C=C/C(=O)NCCCCCCNC2=C3C[C@@H](C)C[C@H](OC)[C@H](O)[C@@H](C)/C=C(\C)[C@H](OC(N)=O)[C@@H](OC)/C=C\C=C(/C)C(=O)NC(=CC2=O)C3=O)cc(OC)c1 | 1.7 |
| CO[C@H]1/C=C\C=C(/C)C(=O)NC2=CC(=O)C(NCC3CCN(C(=O)c4ccncc4)CC3)=C(C[C@@H](C)C[C@H](OC)[C@H](O)[C@@H](C)/C=C(\C)[C@@H]1OC(N)=O)C2=O | 2.84 |
| CO[C@H]1/C=C\C=C(/C)C(=O)NC2=CC(=O)C(NCCCCCCNC(=O)c3ccccc3O)=C(C[C@@H](C)C[C@H](OC)[C@H](O)[C@@H](C)/C=C(\C)[C@@H]1OC(N)=O)C2=O | 6.04 |
| COc1ccc(/C=C/C(=O)NCCCCCCNC2=C3C[C@@H](C)C[C@H](OC)[C@H](O)[C@@H](C)/C=C(\C)[C@H](OC(N)=O)[C@@H](OC)/C=C\C=C(/C)C(=O)NC(=CC2=O)C3=O)c(OC)c1OC | 1.86 |
| CO[C@H]1/C=C\C=C(/C)C(=O)NC2=CC(=O)C(NCCCCCCNC(=O)/C=C/c3ccc(OC(F)(F)F)cc3)=C(C[C@@H](C)C[C@H](OC)[C@H](O)[C@@H](C)/C=C(\C)[C@@H]1OC(N)=O)C2=O | > 10 |
| CO[C@H]1/C=C\C=C(/C)C(=O)NC2=CC(=O)C(NCCCCCCNC(=O)c3ccccn3)=C(C[C@@H](C)C[C@H](OC)[C@H](O)[C@@H](C)/C=C(\C)[C@@H]1OC(N)=O)C2=O | 1.73 |
| CO[C@H]1/C=C\C=C(/C)C(=O)NC2=CC(=O)C(NCCCCCCNC(=O)/C=C/c3ccc(N(C)C)cc3)=C(C[C@@H](C)C[C@H](OC)[C@H](O)[C@@H](C)/C=C(\C)[C@@H]1OC(N)=O)C2=O | 2.11 |
| CO[C@H]1/C=C\C=C(/C)C(=O)NC2=CC(=O)C(NCCCCCCNC(=O)c3cncnc3)=C(C[C@@H](C)C[C@H](OC)[C@H](O)[C@@H](C)/C=C(\C)[C@@H]1OC(N)=O)C2=O | 1.22 |
| CO[C@H]1/C=C\C=C(/C)C(=O)NC2=CC(=O)C(NCC3CCN(C(=O)c4ccccc4O)CC3)=C(C[C@@H](C)C[C@H](OC)[C@H](O)[C@@H](C)/C=C(\C)[C@@H]1OC(N)=O)C2=O | 1.82 |
| CO[C@H]1/C=C\C=C(/C)C(=O)NC2=CC(=O)C(NCCCCCCNC(=O)/C=C/c3ccccc3C)=C(C[C@@H](C)C[C@H](OC)[C@H](O)[C@@H](C)/C=C(\C)[C@@H]1OC(N)=O)C2=O | 6.91 |
| CO[C@H]1/C=C\C=C(/C)C(=O)NC2=CC(=O)C(NCCCCCCNC(=O)c3ccncn3)=C(C[C@@H](C)C[C@H](OC)[C@H](O)[C@@H](C)/C=C(\C)[C@@H]1OC(N)=O)C2=O | 0.92 |
| CO[C@H]1/C=C\C=C(/C)C(=O)NC2=CC(=O)C(NCCCCNC(=O)c3cccnc3)=C(C[C@@H](C)C[C@H](OC)[C@H](O)[C@@H](C)/C=C(\C)[C@@H]1OC(N)=O)C2=O | 4.09 |
| COc1ccc(/C=C/C(=O)NCCCCCCNC2=C3C[C@@H](C)C[C@H](OC)[C@H](O)[C@@H](C)/C=C(\C)[C@H](OC(N)=O)[C@@H](OC)/C=C\C=C(/C)C(=O)NC(=CC2=O)C3=O)cc1O | 1.47 |
| COc1ccccc1/C=C/C(=O)NCCCCCCNC1=C2C[C@@H](C)C[C@H](OC)[C@H](O)[C@@H](C)/C=C(\C)[C@H](OC(N)=O)[C@@H](OC)/C=C\C=C(/C)C(=O)NC(=CC1=O)C2=O | 3.32 |
| CO[C@H]1/C=C\C=C(/C)C(=O)NC2=CC(=O)C(NCC3CCN(C(=O)c4cccnc4)CC3)=C(C[C@@H](C)C[C@H](OC)[C@H](O)[C@@H](C)/C=C(\C)[C@@H]1OC(N)=O)C2=O | 2.03 |

| SMILES | IC50 [µM] |
| --- | --- |
| CO[C@H]1/C=C\C=C(/C)C(=O)NC2=CC(=O)C(NCCCCCCNC(=O)c3ccc(Br)cc3)=C(C[C@@H](C)C[C@H](OC)[C@H](O)[C@@H](C)/C=C(\C)[C@@H]1OC(N)=O)C2=O | 4.65 |
| CO[C@H]1/C=C\C=C(/C)C(=O)NC2=CC(=O)C(NCCCCCCNC(=O)c3ccc([N+](=O)[O-])cc3)=C(C[C@@H](C)C[C@H](OC)[C@H](O)[C@@H](C)/C=C(\C)[C@@H]1OC(N)=O)C2=O | 2.95 |
| CO[C@H]1/C=C\C=C(/C)C(=O)NC2=CC(=O)C(NCCCCCCNC(=O)/C=C/c3ccccc3)=C(C[C@@H](C)C[C@H](OC)[C@H](O)[C@@H](C)/C=C(\C)[C@@H]1OC(N)=O)C2=O | 5.14 |
| CO[C@H]1/C=C\C=C(/C)C(=O)NC2=CC(=O)C(NCCCCCCNC(=O)c3ccncc3)=C(C[C@@H](C)C[C@H](OC)[C@H](O)[C@@H](C)/C=C(\C)[C@@H]1OC(N)=O)C2=O | 0.89 |
| COc1ccc(/C=C/C(=O)NCCCCCCNC2=C3C[C@@H](C)C[C@H](OC)[C@H](O)[C@@H](C)/C=C(\C)[C@H](OC(N)=O)[C@@H](OC)/C=C\C=C(/C)C(=O)NC(=CC2=O)C3=O)cc1 | 4.54 |
| CO[C@H]1/C=C\C=C(/C)C(=O)NC2=CC(=O)C(NCCCCCCNC(=O)c3cncc(Br)c3)=C(C[C@@H](C)C[C@H](OC)[C@H](O)[C@@H](C)/C=C(\C)[C@@H]1OC(N)=O)C2=O | 2.35 |
| CO[C@H]1/C=C\C=C(/C)C(=O)NC2=CC(=O)C(NCCCCCCNC(=O)/C=C/c3ccc(C(F)(F)F)cc3)=C(C[C@@H](C)C[C@H](OC)[C@H](O)[C@@H](C)/C=C(\C)[C@@H]1OC(N)=O)C2=O | > 10 |
| COc1ccc(OC)c(/C=C/C(=O)NCCCCCCNC2=C3C[C@@H](C)C[C@H](OC)[C@H](O)[C@@H](C)/C=C(\C)[C@H](OC(N)=O)[C@@H](OC)/C=C\C=C(/C)C(=O)NC(=CC2=O)C3=O)c1 | 8.15 |
| CO[C@H]1/C=C\C=C(/C)C(=O)NC2=CC(=O)C(NCCCCCCNC(=O)/C=C/c3ccc(O)c(O)c3)=C(C[C@@H](C)C[C@H](OC)[C@H](O)[C@@H](C)/C=C(\C)[C@@H]1OC(N)=O)C2=O | 3.93 |
| CO[C@H]1/C=C\C=C(/C)C(=O)NC2=CC(=O)C(NCCCCCCNC(=O)c3cc(O)cc(O)c3)=C(C[C@@H](C)C[C@H](OC)[C@H](O)[C@@H](C)/C=C(\C)[C@@H]1OC(N)=O)C2=O | 4.35 |
| CO[C@H]1/C=C\C=C(/C)C(=O)NC2=CC(=O)C(NCCCCNC(=O)/C=C/c3ccc(O)cc3)=C(C[C@@H](C)C[C@H](OC)[C@H](O)[C@@H](C)/C=C(\C)[C@@H]1OC(N)=O)C2=O | 1.66 |
| CO[C@H]1/C=C\C=C(/C)C(=O)NC2=CC(=O)C(NCCCCCCNC(=O)c3ccc(Cl)cc3)=C(C[C@@H](C)C[C@H](OC)[C@H](O)[C@@H](C)/C=C(\C)[C@@H]1OC(N)=O)C2=O | 4.1 |
| COc1cccc(/C=C/C(=O)NCCCCCCNC2=C3C[C@@H](C)C[C@H](OC)[C@H](O)[C@@H](C)/C=C(\C)[C@H](OC(N)=O)[C@@H](OC)/C=C\C=C(/C)C(=O)NC(=CC2=O)C3=O)c1OC | 6.03 |
| CO[C@H]1/C=C\C=C(/C)C(=O)NC2=CC(=O)C(NCC3CCN(C(=O)c4ccccn4)CC3)=C(C[C@@H](C)C[C@H](OC)[C@H](O)[C@@H](C)/C=C(\C)[C@@H]1OC(N)=O)C2=O | 1.12 |
| CO[C@H]1/C=C\C=C(/C)C(=O)NC2=CC(=O)C(NCCCCNC(=O)c3ccccn3)=C(C[C@@H](C)C[C@H](OC)[C@H](O)[C@@H](C)/C=C(\C)[C@@H]1OC(N)=O)C2=O | 3.14 |
| CO[C@H]1/C=C\C=C(/C)C(=O)NC2=CC(=O)C(NCC3CCN(C(=O)c4cnc(C)c(C)n4)CC3)=C(C[C@@H](C)C[C@H](OC)[C@H](O)[C@@H](C)/C=C(\C)[C@@H]1OC(N)=O)C2=O | 2.33 |
| CO[C@H]1/C=C\C=C(/C)C(=O)NC2=CC(=O)C(NCC3CCN(C(=O)/C=C/c4ccc(O)cc4)CC3)=C(C[C@@H](C)C[C@H](OC)[C@H](O)[C@@H](C)/C=C(\C)[C@@H]1OC(N)=O)C2=O | 1.68 |
| CO[C@H]1/C=C\C=C(/C)C(=O)NC2=CC(=O)C(NCCCCCCNC(=O)/C=C/c3cccc(Cl)c3)=C(C[C@@H](C)C[C@H](OC)[C@H](O)[C@@H](C)/C=C(\C)[C@@H]1OC(N)=O)C2=O | 5.23 |
| CO[C@H]1/C=C\C=C(/C)C(=O)NC2=CC(=O)C(NCCCCCCNC(=O)c3nc(C)c(C)nc3C)=C(C[C@@H](C)C[C@H](OC)[C@H](O)[C@@H](C)/C=C(\C)[C@@H]1OC(N)=O)C2=O | 3.12 |
| CO[C@H]1/C=C\C=C(/C)C(=O)NC2=CC(=O)C(NCCCCCCNC(=O)/C=C/c3ccc(C)cc3)=C(C[C@@H](C)C[C@H](OC)[C@H](O)[C@@H](C)/C=C(\C)[C@@H]1OC(N)=O)C2=O | 3.96 |
| CO[C@H]1/C=C\C=C(/C)C(=O)NC2=CC(=O)C(NCCCCCCNC(=O)/C=C/c3ccc(O)cc3)=C(C[C@@H](C)C[C@H](OC)[C@H](O)[C@@H](C)/C=C(\C)[C@@H]1OC(N)=O)C2=O | 0.97 |
| CO[C@H]1/C=C\C=C(/C)C(=O)NC2=CC(=O)C(NCCCCCCNC(=O)c3cccnc3)=C(C[C@@H](C)C[C@H](OC)[C@H](O)[C@@H](C)/C=C(\C)[C@@H]1OC(N)=O)C2=O | 0.5 |
| CO[C@H]1/C=C\C=C(/C)C(=O)NC2=CC(=O)C(NCCCCCCNC(=O)/C=C/c3cccc(O)c3)=C(C[C@@H](C)C[C@H](OC)[C@H](O)[C@@H](C)/C=C(\C)[C@@H]1OC(N)=O)C2=O | 1.24 |
